Counter-ions that a name gives are not always drawn.
What was measured:
NLRP3 [1] = target: T1, NLRP3 (Homo sapiens, UniProt Q96P20); assay: THP-1 cells pyroptosis assay
Protocol: The cells were routinely passaged and grown to confluency (~10^6 cells/ml). On the day of the experiment, THP-1 cells were harvested and resuspended into RPMI medium (without FBS). […] To this diluted cell solution was added LPS (Sigma #L4524) to give a 1 μg/ml Final Assay Concentration (FAC). 40 μl of the final preparation was aliquoted into each well of a 96-well plate. The plate thus prepared was used for compound screening.

NLRP3 [2] = target: T1, NLRP3; assay: Human whole blood IL-1β release assay; type: cell-based; set-up: Human whole blood in Li-heparin tubes was obtained from healthy donors; from tissue; host or cells: human whole blood from healthy donors; conditions: LPS 1 μg/ml, nigericin 10 μM, IL-1β AlphaLisa
Text: For systemic delivery, the ability to inhibit NLRP3 when the compounds are present within the bloodstream is of great importance.

[3] = target: T2, hERG cardiac potassium channel (Homo sapiens, UniProt Q12809); assay: hERG screening assay (automated patch clamp, CHO crelox hERG cells); type: cell-based; conditions: whole-cell patch clamp, 35-37° C.
T2 construct: host or cells: CHO crelox hERG cell line (Chinese hamster)
Text: In the drug development process of small molecules, one of the most frequent adverse side effects, leading to the failure of drugs, is the cardiac arrhythmias. […] Having no or low inhibition of the hERG cardiac potassium channel is therefore considered as beneficial.
Ready-to-use frozen instant CHO-hERG cells were cryopreserved at Evotec (Germany) and used directly in the experiments.
The extracellular solution contains (in mM): NaCl 150; KCl 4; CaCl2 1; MgCl2 1; HEPES 10; pH 7.2-7.4 with NaOH, osmolarity 290-330 mOsm. The internal solution contains (in mM): KCl, 10; KF, 100; NaCl, 10; HEPES, 10; EGTA, 20; pH=7.0-7.4 with KOH, osmolarity 260-300 mOsm.
The effects of a compound on hERG K+-currents parameters will be evaluated at 2 concentrations in at least 4 cells.
K+ currents are measured with the patch-voltage-clamp technique in the whole-cell configuration at 35-37° C.
The amplitudes of IKhERG were recorded in each concentration of drug and they were compared to the vehicle control values (taken as 100%) to define fractional blocks. The concentration-response data were fitted with the following relationship:
Concentration-response curves were fitted by non-linear regression analysis using EworkBook suite (ID Business Solutions Ltd, UK). Data fit was done with the 4 Parameter Logistic Model (fit=(A+(B/(1+((x/C)^D)))), where A=0 and B=100).

human P-gp = target: T3, human P-gp (Homo sapiens, UniProt P08183); assay: Transcellular human P-gp assay (transfected LLC-PK1 cells); type: in vitro ADME; conditions: LLC-PK1 cells over-expressing human P-gp
T3 construct: expressed in transfected cells; host or cells: LLC-PK1 cells (porcine kidney epithelial cells)
Text: The general assay uses transfected LLC-PK1 cells (porcine kidney epithelial cells) over-expressing human or mouse P-gp, cultured on 96 well semi-permeable filter membrane plates, where they form a polarized monolayer with tight junctions, and act as a barrier between the apical and basolateral compartment.
P-gp is expressed in the apical-facing membrane of the monolayer.

T1 sequence (Q96P20 whole entry): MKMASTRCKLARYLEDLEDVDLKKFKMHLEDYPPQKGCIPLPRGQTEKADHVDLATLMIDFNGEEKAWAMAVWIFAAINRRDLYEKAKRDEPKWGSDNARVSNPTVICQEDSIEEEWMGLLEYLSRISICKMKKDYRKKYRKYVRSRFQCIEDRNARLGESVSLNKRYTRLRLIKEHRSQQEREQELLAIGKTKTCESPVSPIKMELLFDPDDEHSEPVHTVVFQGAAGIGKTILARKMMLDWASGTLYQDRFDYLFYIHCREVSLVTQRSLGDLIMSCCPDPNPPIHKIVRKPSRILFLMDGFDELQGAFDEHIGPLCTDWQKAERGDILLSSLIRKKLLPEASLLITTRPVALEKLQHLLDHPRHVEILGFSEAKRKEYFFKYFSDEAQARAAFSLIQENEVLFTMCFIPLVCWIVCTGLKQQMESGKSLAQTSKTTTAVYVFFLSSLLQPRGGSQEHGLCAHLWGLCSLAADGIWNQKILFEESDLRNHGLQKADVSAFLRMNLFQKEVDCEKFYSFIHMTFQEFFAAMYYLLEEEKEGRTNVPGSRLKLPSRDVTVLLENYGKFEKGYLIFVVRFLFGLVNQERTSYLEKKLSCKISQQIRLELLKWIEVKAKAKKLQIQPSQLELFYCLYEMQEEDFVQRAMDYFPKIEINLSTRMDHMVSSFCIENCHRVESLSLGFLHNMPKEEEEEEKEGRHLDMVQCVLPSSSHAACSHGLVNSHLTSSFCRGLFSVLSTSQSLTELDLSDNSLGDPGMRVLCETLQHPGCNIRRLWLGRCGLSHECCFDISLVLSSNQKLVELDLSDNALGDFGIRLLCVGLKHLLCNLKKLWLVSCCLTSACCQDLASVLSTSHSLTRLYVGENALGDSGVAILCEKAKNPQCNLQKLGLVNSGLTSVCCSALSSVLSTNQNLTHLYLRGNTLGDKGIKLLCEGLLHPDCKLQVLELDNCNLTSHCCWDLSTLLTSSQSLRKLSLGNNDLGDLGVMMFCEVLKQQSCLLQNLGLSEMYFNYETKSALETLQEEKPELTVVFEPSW
T3 sequence (P08183 whole entry): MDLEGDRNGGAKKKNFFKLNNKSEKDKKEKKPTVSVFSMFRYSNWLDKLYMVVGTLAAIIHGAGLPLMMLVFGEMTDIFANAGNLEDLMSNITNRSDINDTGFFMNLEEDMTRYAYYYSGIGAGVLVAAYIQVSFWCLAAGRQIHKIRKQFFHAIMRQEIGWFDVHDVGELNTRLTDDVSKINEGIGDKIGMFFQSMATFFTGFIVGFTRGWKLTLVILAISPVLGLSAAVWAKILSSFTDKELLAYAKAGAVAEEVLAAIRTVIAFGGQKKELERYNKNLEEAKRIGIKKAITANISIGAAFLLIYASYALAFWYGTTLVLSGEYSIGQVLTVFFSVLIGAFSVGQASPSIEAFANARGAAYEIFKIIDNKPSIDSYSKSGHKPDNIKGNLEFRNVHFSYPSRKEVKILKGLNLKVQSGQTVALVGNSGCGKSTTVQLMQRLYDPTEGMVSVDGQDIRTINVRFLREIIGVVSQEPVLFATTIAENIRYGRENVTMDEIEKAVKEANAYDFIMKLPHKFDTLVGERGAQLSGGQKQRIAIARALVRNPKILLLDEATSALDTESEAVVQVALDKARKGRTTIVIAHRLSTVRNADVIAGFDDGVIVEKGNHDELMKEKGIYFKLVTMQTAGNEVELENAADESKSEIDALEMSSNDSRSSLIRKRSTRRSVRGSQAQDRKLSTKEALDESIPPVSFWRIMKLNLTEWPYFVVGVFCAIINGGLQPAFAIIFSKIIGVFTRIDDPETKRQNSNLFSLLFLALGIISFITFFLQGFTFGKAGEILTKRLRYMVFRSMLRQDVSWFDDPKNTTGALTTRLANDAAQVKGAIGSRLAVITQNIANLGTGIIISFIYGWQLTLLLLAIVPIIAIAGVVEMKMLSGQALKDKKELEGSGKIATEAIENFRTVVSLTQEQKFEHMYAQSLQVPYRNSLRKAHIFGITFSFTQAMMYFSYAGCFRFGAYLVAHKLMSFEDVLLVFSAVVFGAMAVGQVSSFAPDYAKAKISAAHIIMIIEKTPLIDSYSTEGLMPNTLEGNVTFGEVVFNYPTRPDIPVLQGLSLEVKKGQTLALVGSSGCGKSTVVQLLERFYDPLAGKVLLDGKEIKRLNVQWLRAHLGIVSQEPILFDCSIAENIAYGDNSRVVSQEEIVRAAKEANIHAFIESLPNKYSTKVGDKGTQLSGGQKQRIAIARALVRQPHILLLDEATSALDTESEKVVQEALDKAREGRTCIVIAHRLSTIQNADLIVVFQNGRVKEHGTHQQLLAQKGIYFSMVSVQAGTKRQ
T2 sequence (Q12809 whole entry): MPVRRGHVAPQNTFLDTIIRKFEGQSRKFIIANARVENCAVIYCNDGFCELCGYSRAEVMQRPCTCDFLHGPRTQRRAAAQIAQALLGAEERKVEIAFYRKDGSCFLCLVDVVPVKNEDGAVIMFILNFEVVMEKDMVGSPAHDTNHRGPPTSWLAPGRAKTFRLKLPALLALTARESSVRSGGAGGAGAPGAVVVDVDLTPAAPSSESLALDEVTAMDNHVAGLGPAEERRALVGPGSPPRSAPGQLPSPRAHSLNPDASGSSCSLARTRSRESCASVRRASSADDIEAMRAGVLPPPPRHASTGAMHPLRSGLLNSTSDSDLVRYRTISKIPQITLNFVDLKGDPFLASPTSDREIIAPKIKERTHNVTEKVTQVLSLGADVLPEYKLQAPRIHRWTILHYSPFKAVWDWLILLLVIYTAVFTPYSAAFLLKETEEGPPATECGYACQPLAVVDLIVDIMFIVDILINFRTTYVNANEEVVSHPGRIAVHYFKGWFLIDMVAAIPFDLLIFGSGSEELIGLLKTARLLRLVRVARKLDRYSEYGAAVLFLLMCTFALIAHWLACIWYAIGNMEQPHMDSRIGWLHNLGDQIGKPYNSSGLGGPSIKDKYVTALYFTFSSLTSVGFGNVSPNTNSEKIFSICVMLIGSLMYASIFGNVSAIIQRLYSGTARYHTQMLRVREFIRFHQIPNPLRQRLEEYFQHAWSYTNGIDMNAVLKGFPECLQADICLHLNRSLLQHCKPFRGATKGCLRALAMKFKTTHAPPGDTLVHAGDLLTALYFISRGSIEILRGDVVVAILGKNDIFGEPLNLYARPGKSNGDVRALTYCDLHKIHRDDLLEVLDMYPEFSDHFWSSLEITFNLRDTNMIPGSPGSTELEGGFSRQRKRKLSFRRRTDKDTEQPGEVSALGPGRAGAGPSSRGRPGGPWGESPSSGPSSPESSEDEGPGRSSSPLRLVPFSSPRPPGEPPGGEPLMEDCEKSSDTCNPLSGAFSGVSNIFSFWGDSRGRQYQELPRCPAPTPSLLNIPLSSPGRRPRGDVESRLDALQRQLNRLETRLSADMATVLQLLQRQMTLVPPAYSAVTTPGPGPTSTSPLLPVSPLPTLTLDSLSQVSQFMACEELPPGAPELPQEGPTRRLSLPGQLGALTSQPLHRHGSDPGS

Row | Structure (SMILES) | IC50 (NLRP3 [1]) [nM] | IC50 (NLRP3 [2]) [nM] | IC20 [3] [nM] | efflux ratio (human P-gp; read-out: ER (efflux ratio)) | Papp (human P-gp; read-out: Permeability) [×10⁻⁶ cm/s]
1 | Cc1nc(N[C@@H]2CCCN(CCCC(=O)N3CCC(O)C3)C2)nnc1-c1ccc2c(c1O)CCO2 (mixture of isomers) [Example 15, 1-(3-Hydroxypyrrolidin-1-yl)-4-[rac-(3R)-3-[[6-(4-hydroxy-2,3-dihydrobenzofuran-5-yl)-5-methyl-1,2,4-triazin-3-yl]amino]-1-piperidyl]butan-1-one; formic acid] | 58 | 33 |  |  | 
2 | Cc1nc(N[C@@H]2CCCN(CC3(O)CC3)C2)nnc1-c1ccc2c(c1O)CCO2 [Example 4, 5-[3-[[(3R)-1-[(1-Hydroxycyclopropyl)methyl]-3-piperidyl]amino]-5-methyl-1,2,4-triazin-6-yl]-2,3-dihydrobenzofuran-4-ol] | 17 | 33 |  |  | 
3 | COCCN1CCC[C@@H](Nc2nnc(-c3ccc4c(c3O)CCO4)c(C)n2)C1 [Example 5, 5-[3-[[(3R)-1-(2-Methoxyethyl)-3-piperidyl]amino]-5-methyl-1,2,4-triazin-6-yl]-2,3-dihydrobenzofuran-4-ol; formic acid salt] | 19 | 15 |  |  | 
4 | CCN1C[C@@H](O)C[C@@H](Nc2nnc(-c3ccc4c(c3O)CCO4)c(C)n2)C1 [Example 6, (3S,5R)-1-Ethyl-5-[[6-(4-hydroxy-2,3-dihydrobenzofuran-5-yl)-5-methyl-1,2,4-triazin-3-yl]amino]piperidin-3-ol] | 28 | 23 |  |  | 
5 | COC(C)CN1CCC[C@@H](Nc2nnc(-c3ccc4c(c3O)CCO4)c(C)n2)C1 (stereo partly drawn) [Example 7, 5-[5-Methyl-3-[[(3R)-1-(2-methoxypropyl)-3-piperidyl]amino]-1,2,4-triazin-6-yl]-2,3-dihydrobenzofuran-4-ol] | 62 | 40 |  |  | 
6 | Cc1nc(N[C@@H]2CCCN(C3COC3)C2)nnc1-c1ccc2c(c1O)CCO2 [Example 8, 5-[5-Methyl-3-[[(3R)-1-(oxetan-3-yl)-3-piperidyl]amino]-1,2,4-triazin-6-yl]-2,3-dihydrobenzofuran-4-ol] | 120 |  |  |  | 
7 | CNC(=O)CCCN1CCC[C@@H](Nc2nnc(-c3ccc4c(c3O)CCO4)c(C)n2)C1 [Example 10, 4-[(3R)-3-[[6-(4-hydroxy-2,3-dihydrobenzofuran-5-yl)-5-methyl-1,2,4-triazin-3-yl]amino]-1-piperidyl]-N-methyl-butanamide] | 27 | 40 | 2900 | 8.5 | 12.2
8 | Cc1nc(N[C@@H]2CCCN(CCCC(=O)N(C)C)C2)nnc1-c1ccc2c(c1O)CCO2 [Example 12, 4-[(3R)-3-[[6-(4-Hydroxy-2,3-dihydrobenzofuran-5-yl)-5-methyl-1,2,4-triazin-3-yl]amino]-1-piperidyl]-N,N-dimethyl-butanamide] | 53 | 30 |  |  | 
9 | Cc1nc(N[C@@H]2CCCN(CCCC(=O)N(C)CCO)C2)nnc1-c1ccc2c(c1O)CCO2 [Example 14] | 76 |  |  |  | 
10 | Cc1nc(N[C@@H]2CCCN(CCCC(=O)N3CCOCC3)C2)nnc1-c1ccc2c(c1O)CCO2 [Example 16, 4-[(3R)-3-[[6-(4-Hydroxy-2,3-dihydrobenzofuran-5-yl)-5-methyl-1,2,4-triazin-3-yl]amino]-1-piperidyl]-1-morpholino-butan-1-one] | 40 | 46 |  |  | 
11 | Cc1nc(N[C@@H]2CCCN(CCn3cccn3)C2)nnc1-c1ccc2c(c1O)CCO2 [Example 17, 5-[5-Methyl-3-[[(3R)-1-(2-pyrazol-1-ylethyl)-3-piperidyl]amino]-1,2,4-triazin-6-yl]-2,3-dihydrobenzofuran-4-ol] | 35 | 76 |  |  | 
12 | Cc1nc(N[C@@H]2CCCN(CCCc3nnn[nH]3)C2)nnc1-c1ccc2c(c1O)CCO2 [Example 18, 5-[5-Methyl-3-[[(3R)-1-[3-(1H-tetrazol-5-yl)propyl]-3-piperidyl]amino]-1,2,4-triazin-6-yl]-2,3-dihydrobenzofuran-4-ol; formic acid] | 23 | 23 |  |  | 
13 | Cc1nc(N[C@@H]2CCCN(CCCC#N)C2)nnc1-c1ccc2c(c1O)CCO2 [Example 19, 4-[(3R)-3-[[6-(4-Hydroxy-2,3-dihydrobenzofuran-5-yl)-5-methyl-1,2,4-triazin-3-yl]amino]-1-piperidyl]butanenitrile] | 20 | 26 |  |  | 
14 | Cc1nc(N[C@@H]2CCCN(CCCc3ncco3)C2)nnc1-c1ccc2c(c1O)CCO2 [Example 20, 5-[5-Methyl-3-[[(3R)-1-(3-oxazol-2-ylpropyl)-3-piperidyl]amino]-1,2,4-triazin-6-yl]-2,3-dihydrobenzofuran-4-ol] | 16 | 18 |  |  | 
15 | Cc1nc(N[C@@H]2CCCN(CCc3nnn[nH]3)C2)nnc1-c1ccc2c(c1O)CCO2 [Example 21, 5-[5-Methyl-3-[[(3R)-1-[2-(1H-tetrazol-5-yl)ethyl]-3-piperidyl]amino]-1,2,4-triazin-6-yl]-2,3-dihydrobenzofuran-4-ol] | 20 | 166 |  |  | 
16 | Cc1nc(N[C@@H]2CCCN(CCCS(C)(=O)=O)C2)nnc1-c1ccc2c(c1O)CCO2 [Example 22, 5-[5-Methyl-3-[[(3R)-1-(3-methylsulfonylpropyl)-3-piperidyl]amino]-1,2,4-triazin-6-yl]-2,3-dihydrobenzofuran-4-ol] | 58 | 54 |  |  | 
